The values below come from patent US6537576B1, “Biologically active composition” (Bioglan AB, priority 1998, dated 2003).

Structures are written as SMILES.

A short description of this data set: Solubility of piroxicam in PEG400 (HPLC). It counts as physicochemical. The settings on record: piroxicam in PEG400, excess stirred 2 weeks at room temperature, HPLC analysis.

`CN1C(C(=O)Nc2ccccn2)=C(O)c2ccccc2S1(=O)=O` [piroxicam]: the solubility came to 1.6%.
